Measured values published in the NIST ThermoML archive (doi:10.1021/je060271a).
Numbers after ± are expanded uncertainties.

Settings: 303.16 K, Liquid, Vibrating tube method

CCCC(=O)OCC(COC(=O)CCC)(COC(=O)CCC)COC(=O)CCC [pentaerythritol tetrabutyrate]
Settings | mass density [kg/m3]
28457 kPa | 1059.5 ± 1.3
28504 kPa | 1059.6 ± 1.3
28542 kPa | 1059.7 ± 1.3
28589 kPa | 1059.8 ± 1.3
28636 kPa | 1059.7 ± 1.3
28675 kPa | 1059.8 ± 1.3
28723 kPa | 1059.9 ± 1.3
28762 kPa | 1059.7 ± 1.3
28808 kPa | 1059.8 ± 1.3
28856 kPa | 1059.8 ± 1.3
28896 kPa | 1060 ± 1.3
28944 kPa | 1059.8 ± 1.3
28991 kPa | 1060 ± 1.3
29031 kPa | 1060 ± 1.3
29080 kPa | 1060 ± 1.3
29121 kPa | 1060 ± 1.3
29170 kPa | 1060.1 ± 1.3
29212 kPa | 1060 ± 1.3
29261 kPa | 1060.1 ± 1.3
29301 kPa | 1060 ± 1.3
29349 kPa | 1060 ± 1.3
29397 kPa | 1060.1 ± 1.3
29435 kPa | 1060 ± 1.3
29481 kPa | 1060.1 ± 1.3
29515 kPa | 1060.2 ± 1.3
29583 kPa | 1060.3 ± 1.3
29644 kPa | 1060.2 ± 1.3
29675 kPa | 1060.3 ± 1.3
29772 kPa | 1060.4 ± 1.3
29848 kPa | 1060.4 ± 1.3
29885 kPa | 1060.5 ± 1.3
29968 kPa | 1060.4 ± 1.3
30045 kPa | 1060.6 ± 1.3
30080 kPa | 1060.5 ± 1.3
30163 kPa | 1060.5 ± 1.3
30239 kPa | 1060.6 ± 1.3
30274 kPa | 1060.8 ± 1.3
30309 kPa | 1060.5 ± 1.3
30339 kPa | 1060.8 ± 1.3
30375 kPa | 1060.8 ± 1.3
30405 kPa | 1060.6 ± 1.3
30441 kPa | 1060.8 ± 1.3
30478 kPa | 1060.7 ± 1.3
30509 kPa | 1060.8 ± 1.3
30539 kPa | 1060.8 ± 1.3
30576 kPa | 1060.9 ± 1.3
30606 kPa | 1060.9 ± 1.3
30642 kPa | 1060.7 ± 1.3
30679 kPa | 1060.9 ± 1.3
30710 kPa | 1060.8 ± 1.3
30746 kPa | 1060.9 ± 1.3
30777 kPa | 1061.1 ± 1.3
30814 kPa | 1061 ± 1.3
30850 kPa | 1060.9 ± 1.3
30882 kPa | 1061 ± 1.3
30919 kPa | 1061 ± 1.3
30951 kPa | 1061 ± 1.3
30989 kPa | 1061.1 ± 1.3
31020 kPa | 1061 ± 1.3
31057 kPa | 1061.1 ± 1.3
31094 kPa | 1061.3 ± 1.3
31126 kPa | 1061.1 ± 1.3
31164 kPa | 1061.1 ± 1.3
31196 kPa | 1061.1 ± 1.3
31233 kPa | 1061.1 ± 1.3
31271 kPa | 1061.2 ± 1.3
31303 kPa | 1061.3 ± 1.3
31342 kPa | 1061.2 ± 1.3
31375 kPa | 1061.3 ± 1.3
31414 kPa | 1061.3 ± 1.3
31446 kPa | 1061.3 ± 1.3
31485 kPa | 1061.2 ± 1.3
31517 kPa | 1061.2 ± 1.3
31555 kPa | 1061.3 ± 1.3
31595 kPa | 1061.4 ± 1.3
31627 kPa | 1061.4 ± 1.3
31667 kPa | 1061.4 ± 1.3
31700 kPa | 1061.5 ± 1.3
31738 kPa | 1061.4 ± 1.3
31778 kPa | 1061.5 ± 1.3
31811 kPa | 1061.5 ± 1.3
31851 kPa | 1061.5 ± 1.3
31883 kPa | 1061.5 ± 1.3
31922 kPa | 1061.6 ± 1.3
31960 kPa | 1061.6 ± 1.3
31999 kPa | 1061.6 ± 1.3
32038 kPa | 1061.6 ± 1.3
32076 kPa | 1061.5 ± 1.3
32115 kPa | 1061.7 ± 1.3
32148 kPa | 1061.9 ± 1.3
32187 kPa | 1061.8 ± 1.3
32227 kPa | 1061.7 ± 1.3
32266 kPa | 1061.9 ± 1.3
32299 kPa | 1061.7 ± 1.3
32339 kPa | 1061.8 ± 1.3
32380 kPa | 1061.8 ± 1.3
32419 kPa | 1061.8 ± 1.3
32452 kPa | 1061.8 ± 1.3
32491 kPa | 1062 ± 1.3
32532 kPa | 1061.9 ± 1.3
32572 kPa | 1061.8 ± 1.3
32612 kPa | 1061.9 ± 1.3
32652 kPa | 1062 ± 1.3
32693 kPa | 1061.8 ± 1.3
32727 kPa | 1062 ± 1.3
32768 kPa | 1062 ± 1.3
32809 kPa | 1062.1 ± 1.3
32850 kPa | 1062 ± 1.3
32891 kPa | 1062.2 ± 1.3
33091 kPa | 1062.2 ± 1.3
33133 kPa | 1062.2 ± 1.3
33168 kPa | 1062.2 ± 1.3
33210 kPa | 1062.2 ± 1.3
33253 kPa | 1062.4 ± 1.3
33296 kPa | 1062.3 ± 1.3
33340 kPa | 1062.3 ± 1.3
33377 kPa | 1062.2 ± 1.3
33421 kPa | 1062.4 ± 1.3
33456 kPa | 1062.4 ± 1.3
33499 kPa | 1062.4 ± 1.3
33542 kPa | 1062.4 ± 1.3
33586 kPa | 1062.6 ± 1.3
33622 kPa | 1062.5 ± 1.3
33666 kPa | 1062.6 ± 1.3
33710 kPa | 1062.5 ± 1.3
33753 kPa | 1062.5 ± 1.3
33797 kPa | 1062.6 ± 1.3
33834 kPa | 1062.6 ± 1.3
33881 kPa | 1062.7 ± 1.3
33925 kPa | 1062.7 ± 1.3
33963 kPa | 1062.8 ± 1.3
34008 kPa | 1062.7 ± 1.3
34052 kPa | 1062.7 ± 1.3
34098 kPa | 1062.8 ± 1.3
34136 kPa | 1062.8 ± 1.3
34182 kPa | 1062.8 ± 1.3
34228 kPa | 1062.7 ± 1.3
34275 kPa | 1062.9 ± 1.3
34322 kPa | 1062.9 ± 1.3
34370 kPa | 1063 ± 1.3
34411 kPa | 1063.1 ± 1.3
34462 kPa | 1063 ± 1.3
34514 kPa | 1063.1 ± 1.3
34558 kPa | 1062.9 ± 1.3
34613 kPa | 1063 ± 1.3
34844 kPa | 1063.3 ± 1.3
